In patent US4051237A, “Glycopeptide antibiotics Bu-2231 A and B and process for producing same” (priority 1975, dated 1977):
Values after ≈ are worked out from the molar mass of the structure shown.

Key:
E. coli NIHJ [1] = assay: MIC by two-fold agar dilution; format: cell-based; conditions: Mueller-Hinton agar, unit assumed
E. coli A20665 = assay: MIC by two-fold agar dilution; format: cell-based; conditions: Mueller-Hinton agar, unit assumed
E. coli A20732 = assay: MIC by two-fold agar dilution; format: cell-based; conditions: Mueller-Hinton agar, unit assumed
K. pneumoniae D11 = assay: MIC by two-fold agar dilution; format: cell-based; conditions: Mueller-Hinton agar, unit assumed
K. pneumoniae A20328 = assay: MIC by two-fold agar dilution; format: cell-based; conditions: Mueller-Hinton agar, unit assumed
P. mirabilis A9554 = assay: MIC by two-fold agar dilution; format: cell-based; conditions: Mueller-Hinton agar, unit assumed
S. marcescens A20019 = assay: MIC by two-fold agar dilution; format: cell-based; conditions: Mueller-Hinton agar, unit assumed
S. marcescens A20460 = assay: MIC by two-fold agar dilution; format: cell-based; conditions: Mueller-Hinton agar, unit assumed
P. aeruginosa A 9923 = assay: MIC by two-fold agar dilution; format: cell-based; conditions: Mueller-Hinton agar, unit assumed
S. aureus Smith A9537 = assay: MIC by two-fold agar dilution; format: cell-based; conditions: Mueller-Hinton agar, unit assumed
S. aureus BX-1633,A9606 = assay: MIC by two-fold agar dilution; format: cell-based; conditions: Mueller-Hinton agar, unit assumed
Mycobacterium 607, D87 = assay: MIC by two-fold agar dilution; format: cell-based; conditions: Medium #1001, unit assumed
Mycobacterium phlei, D88 = assay: MIC by two-fold agar dilution; format: cell-based; conditions: Medium #1001, unit assumed
[2] = system: Mycobacterium ranae, ATCC110; assay: MIC by two-fold agar dilution; format: cell-based; conditions: Medium #1001, unit assumed
C. albicans Nystatin-R = assay: MIC by two-fold agar dilution; format: cell-based; conditions: Ca-2 C. albicans Nystatin-R; sabouraud agar; unit assumed
[3] = system: C. tropicalis #125 A15051; assay: MIC by two-fold agar dilution; format: cell-based; conditions: Ct-4 C. tropicalis #125 A15051; sabouraud agar; unit assumed
S. cerevisiae IAM 4009 = assay: MIC by two-fold agar dilution; format: cell-based; conditions: Sc-2 S. cerevisiae IAM 4009; sabouraud agar; unit assumed
A. niger var Tieghem = assay: MIC by two-fold agar dilution; format: cell-based; conditions: An-1 A. niger var Tieghem; sabouraud agar; unit assumed
A. fumigatus IAM 2530 = assay: MIC by two-fold agar dilution; format: cell-based; conditions: Af-1 A. fumigatus IAM 2530; sabouraud agar; unit assumed
Sporotrichum sp. = assay: MIC by two-fold agar dilution; format: cell-based; conditions: Sy-1 Sporotrichum sp.; sabouraud agar; unit assumed
Verticillium sp. = assay: MIC by two-fold agar dilution; format: cell-based; conditions: Vx-1 Verticillium sp.; sabouraud agar; unit assumed
[4] = system: F. moniliforme NRRL A2284; assay: MIC by two-fold agar dilution; format: cell-based; conditions: Fm-1 F. moniliforme NRRL A2284; sabouraud agar; unit assumed
C. lunata ATCC 13432 = assay: MIC by two-fold agar dilution; format: cell-based; conditions: Cl-1 C. lunata ATCC 13432; sabouraud agar; unit assumed
T. asteroides = assay: MIC by two-fold agar dilution; format: cell-based; conditions: Ta-1 T. asteroides; sabouraud agar; unit assumed
M. canis D-51 = assay: MIC by two-fold agar dilution; format: cell-based; conditions: Mc-1 M. canis D-51; sabouraud agar; unit assumed
E. coli NIHJ [5] = assay: In vivo activity in experimental mice infection; conditions: Table 12; for PD50: E. coli NIHJ infection, mice, sc
Protocol: The in vivo activity of Bu-2231 complex was evaluated in experimental mice infections against S. aureus Smith and E. coli NIHJ. Bleomycin was tested comparatively as a reference antibiotic.
The in vivo activty of the individual components of Bu-2231 in each of the copper-free and copper complex forms was also determined in E. coli infection.

[6] = mice, single subcutaneous injection, 16 days
Protocol: The acute toxicity of copper-free Bu-2231 A and B was determined in mice by a single subcutaneous injection. Groups of 3 mice were used for each dose level and the body weight was recorded for 16 days.

Work on `Cc1c(N)nc([C@H](CC(N)=O)NC[C@H](N)C(N)=O)nc1C(=O)N[C@H](C(=O)N[C@H](C)[C@@H](O)CC(=O)N[C@H](C(=O)NC(O[C@@H]1O[C@@H](C)[C@@H](N)[C@@H](O)[C@H]1O)C(O)c1nc(-c2nc(C(=O)NCCCC(N)CC(=O)NCCCNCCCCN)cs2)cs1)[C@@H](C)O)[C@H](O[C@@H]1O[C@@H](CO)[C@@H](O)[C@H](O)[C@@H]1O[C@H]1O[C@H](CO)[C@@H](O)[C@H](OC(N)=O)[C@@H]1O)c1c[nH]cn1` (stereo partly shown) [Bu-2231 A Cu-free] yielded an MIC (E. coli NIHJ [1]) of 0.025 µg/mL (≈ 0.0144 µM), an MIC (E. coli A20665) of 0.05 µg/mL (≈ 0.0289 µM) and an MIC (E. coli A20732) of 0.05 µg/mL (≈ 0.0289 µM). For the same compound, the MIC (K. pneumoniae D11) was < 0.0063 µg/mL, the MIC (K. pneumoniae A20328) was 0.8 µg/mL (≈ 0.462 µM) and the MIC (P. mirabilis A9554) was 0.1 µg/mL (≈ 0.0577 µM). It also gave an MIC (S. marcescens A20019) of 0.4 µg/mL (≈ 0.231 µM), an MIC (S. marcescens A20460) of 0.4 µg/mL (≈ 0.231 µM) and an MIC (P. aeruginosa A 9923) of 50 µg/mL (≈ 28.9 µM). The MIC (S. aureus Smith A9537) was 0.1 µg/mL (≈ 0.0577 µM), the MIC (S. aureus BX-1633,A9606) was 0.2 µg/mL (≈ 0.115 µM) and the MIC (Mycobacterium 607, D87) was 0.2 µg/mL (≈ 0.115 µM). It also gave an MIC (Mycobacterium phlei, D88) of 0.05 µg/mL (≈ 0.0289 µM), an MIC [2] of 0.1 µg/mL (≈ 0.0577 µM) and an MIC (C. albicans Nystatin-R) of 0.8 µg/mL (≈ 0.462 µM). It also gave an MIC [3] of 0.8 µg/mL (≈ 0.462 µM), an MIC (S. cerevisiae IAM 4009) of 0.4 µg/mL (≈ 0.231 µM) and an MIC (A. niger var Tieghem) of 0.2 µg/mL (≈ 0.115 µM). The MIC (A. fumigatus IAM 2530) was 0.8 µg/mL (≈ 0.462 µM), the MIC (Sporotrichum sp.) was 3.1 µg/mL (≈ 1.79 µM) and the MIC (Verticillium sp.) was 3.1 µg/mL (≈ 1.79 µM). For the same compound, the MIC [4] was 0.8 µg/mL (≈ 0.462 µM), the MIC (C. lunata ATCC 13432) was 0.8 µg/mL (≈ 0.462 µM) and the MIC (T. asteroides) was 3.1 µg/mL (≈ 1.79 µM). The MIC (M. canis D-51) was 3.1 µg/mL (≈ 1.79 µM), the PD50 (E. coli NIHJ [5]) was 0.024 mg/kg and the “In vivo activity vs. E. coli NIHJ infection (x/5 mice)” value (E. coli NIHJ [5]; dose (sc) 0.008) was 1/5. For the same compound, the “In vivo activity vs. E. coli NIHJ infection (x/5 mice)” value (E. coli NIHJ [5]; dose (sc) 0.03) was 3/5, the “In vivo activity vs. E. coli NIHJ infection (x/5 mice)” value (E. coli NIHJ [5]; dose (sc) 0.13) was 5/5 and the “In vivo activity vs. E. coli NIHJ infection (x/5 mice)” value (E. coli NIHJ [5]; dose (sc) 0.5) was 5/5. The “In vivo activity vs. E. coli NIHJ infection (x/5 mice)” value (E. coli NIHJ [5]; dose (sc) 2) was 5/5 and the LD50 [6] was 28 mg/kg.

`Cc1c(N)nc([C@H](CC(N)=O)NC[C@@H](N)C(N)=O)nc1C(=O)N[C@H](C(=O)N[C@H](C)[C@@H](O)CC(=O)N[C@@H](C(=O)NC(O[C@@H]1O[C@@H](C)[C@@H](N)[C@@H](O)[C@H]1O)C(O)c1nc(-c2nc(C(=O)NCCCNCCCCN)cs2)cs1)[C@@H](C)O)C(O[C@@H]1O[C@@H](CO)[C@H](O)[C@@H](O)[C@@H]1O[C@H]1O[C@H](CO)[C@@H](O)[C@@H](OC(N)=O)[C@@H]1O)c1cnc[nH]1` (stereo partly shown) [Bu-2231 B Cu-free] showed an MIC (E. coli NIHJ [1]) of 0.2 µg/mL (≈ 0.125 µM), an MIC (E. coli A20665) of 0.05 µg/mL (≈ 0.0312 µM) and an MIC (E. coli A20732) of 0.2 µg/mL (≈ 0.125 µM). It also gave an MIC (K. pneumoniae D11) of 0.025 µg/mL (≈ 0.0156 µM), an MIC (K. pneumoniae A20328) of 1.6 µg/mL (≈ 0.998 µM) and an MIC (P. mirabilis A9554) of 0.2 µg/mL (≈ 0.125 µM). For the same compound, the MIC (S. marcescens A20019) was 0.8 µg/mL (≈ 0.499 µM), the MIC (S. marcescens A20460) was 0.8 µg/mL (≈ 0.499 µM) and the MIC (P. aeruginosa A 9923) was > 100 µg/mL. It also gave an MIC (S. aureus Smith A9537) of 0.05 µg/mL (≈ 0.0312 µM), an MIC (S. aureus BX-1633,A9606) of 0.8 µg/mL (≈ 0.499 µM) and an MIC (Mycobacterium 607, D87) of 0.1 µg/mL (≈ 0.0624 µM). The MIC (Mycobacterium phlei, D88) was 0.05 µg/mL (≈ 0.0312 µM), the MIC [2] was 0.1 µg/mL (≈ 0.0624 µM) and the MIC (C. albicans Nystatin-R) was 0.8 µg/mL (≈ 0.499 µM). The MIC [3] was 0.8 µg/mL (≈ 0.499 µM), the MIC (S. cerevisiae IAM 4009) was 0.2 µg/mL (≈ 0.125 µM) and the MIC (A. niger var Tieghem) was 0.2 µg/mL (≈ 0.125 µM). It also gave an MIC (A. fumigatus IAM 2530) of 0.4 µg/mL (≈ 0.249 µM), an MIC (Sporotrichum sp.) of 3.1 µg/mL (≈ 1.93 µM) and an MIC (Verticillium sp.) of 1.6 µg/mL (≈ 0.998 µM). The MIC [4] was 0.8 µg/mL (≈ 0.499 µM), the MIC (C. lunata ATCC 13432) was 0.2 µg/mL (≈ 0.125 µM) and the MIC (T. asteroides) was 0.8 µg/mL (≈ 0.499 µM). The MIC (M. canis D-51) was 0.8 µg/mL (≈ 0.499 µM), the PD50 (E. coli NIHJ [5]) was 0.065 mg/kg and the “In vivo activity vs. E. coli NIHJ infection (x/5 mice)” value (E. coli NIHJ [5]; dose (sc) 0.008) was 0/5. For the same compound, the “In vivo activity vs. E. coli NIHJ infection (x/5 mice)” value (E. coli NIHJ [5]; dose (sc) 0.03) was 1/5, the “In vivo activity vs. E. coli NIHJ infection (x/5 mice)” value (E. coli NIHJ [5]; dose (sc) 0.13) was 4/5 and the “In vivo activity vs. E. coli NIHJ infection (x/5 mice)” value (E. coli NIHJ [5]; dose (sc) 0.5) was 5/5. For the same compound, the “In vivo activity vs. E. coli NIHJ infection (x/5 mice)” value (E. coli NIHJ [5]; dose (sc) 2) was 5/5 and the LD50 [6] was > 50 mg/kg.
